Data on twelve molecules can be found in BindingDB's records for patent US20250213705 (Bright Peak Therapeutics, 2025).

As usually defined, the IC50 is the concentration that gives 50% inhibition. Broadly, the Ki is a measure of affinity in units of concentration, obtained from inhibition or displacement. A high value points to weaker binding. Usually Kd stands for the constant that tells how readily two partners part at equilibrium.

The structures appear in SMILES notation.

Assay [1] addresses T1, Glutamate carboxypeptidase 2 (Homo sapiens, UniProt Q04609). As to the kind of experiment: Inhibition Assay. How it is done: Prepare a working solution of 100 μM Amplex Red reagent containing 0.25 U/mL HRP, 0.08 U/mL L-glutamate oxidase, 0.5 U/mL 1-glutamate-pyruvate transaminase, 200 μM L-alanine and keep protected from light. […] Final concentration is 5 nM. Transfer 10 μl/well of the inhibitor solution previously prepared in a separate 96 wells/plate. […] Incubate the reactions for 30 min at 37° C., protected from light. Because the assay is continuous (not terminated), fluorescence may be measured at multiple time points to follow the kinetics of the reactions. Measure the fluorescence in a fluorescence microplate reader using excitation in the range of 530-560 nm and emission detection at ˜590 nm. Ec50s were determined with GraphPad Prism. Ki is calculated based on Cheng-Prusoff equation.

For assay [2], the target named is T1, Glutamate carboxypeptidase 2. As to the kind of experiment: SPR Analysis. As for the experimental part:
The interaction of PSMA-binding variants with human FOLH1 was measured with Surface Plasmon Resonance (SPR) technology. Biotinylated FOLH1 was captured at a concentration of 30 μg/mL onto a Streptavidin chip. […] After each cycle, needles were washed with 50% DMSO. To measure the association to the FOLH1 protein, the samples were injected with a flow rate of 30 μL/min for 90 s, followed by 1200 s buffer only to detect the dissociation. The used running buffer was 1×PBS with 0.05% Tween20 and 2% DMSO. The relative response units (RU, Y-axis) are plotted against time (s, X-axis) and analyzed in a kinetic 1:1 binding model. In a different setup, biotinylated FOLH1 was captured at a concentration of 0.8 μg/mL and the running buffer was 1×PBS with 0.05% Tween20.

T1 sequence (Q04609 whole entry): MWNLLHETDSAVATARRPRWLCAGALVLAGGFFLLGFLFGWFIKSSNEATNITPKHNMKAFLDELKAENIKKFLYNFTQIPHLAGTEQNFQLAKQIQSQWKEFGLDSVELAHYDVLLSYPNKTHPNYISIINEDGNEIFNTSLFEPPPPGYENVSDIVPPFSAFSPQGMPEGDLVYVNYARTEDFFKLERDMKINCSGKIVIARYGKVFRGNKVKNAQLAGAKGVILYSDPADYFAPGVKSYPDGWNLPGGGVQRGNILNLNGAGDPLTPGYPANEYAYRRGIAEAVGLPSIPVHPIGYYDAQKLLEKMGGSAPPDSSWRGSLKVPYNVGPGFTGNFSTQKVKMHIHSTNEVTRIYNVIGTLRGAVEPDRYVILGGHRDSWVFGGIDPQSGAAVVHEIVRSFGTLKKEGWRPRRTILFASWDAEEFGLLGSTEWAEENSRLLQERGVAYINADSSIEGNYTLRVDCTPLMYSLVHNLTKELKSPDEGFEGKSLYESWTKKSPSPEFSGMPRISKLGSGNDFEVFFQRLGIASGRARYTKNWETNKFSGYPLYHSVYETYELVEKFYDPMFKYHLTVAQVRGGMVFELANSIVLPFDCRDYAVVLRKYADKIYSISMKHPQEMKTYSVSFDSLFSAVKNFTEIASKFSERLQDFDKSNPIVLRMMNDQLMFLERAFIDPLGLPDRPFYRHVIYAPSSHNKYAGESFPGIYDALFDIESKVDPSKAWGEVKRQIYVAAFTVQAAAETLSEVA

Take `CC(=O)NCCOCCOCCOCCC(=O)NC[C@H]1CC[C@H](C(=O)N[C@@H](Cc2ccc3ccccc3c2)C(=O)NCCCC[C@H](NC(=O)N[C@@H](CC(=O)O)C(=O)O)C(=O)O)CC1` [US20250213705, Compound 23]: in assay [1], inhibition was half-maximal at 7010 nM (IC50) and the affinity, expressed as Ki, was 50.1 nM. For the same molecule, the Kd in assay [2] turned out to be 120 nM.
In assay [1], `CC(=O)NCCOCCOCCOCCC(=O)NC[C@H]1CC[C@H](C(=O)N[C@@H](Cc2ccc3ccccc3c2)C(=O)NCCCC[C@H](NC(=O)N[C@@H](CS)C(=O)O)C(=O)O)CC1` [US20250213705, Compound 28] registered an IC50 of 21300 nM and a Ki of 152 nM.
For `CC(=O)NCCOCCOCCOCCC(=O)NC[C@H]1CC[C@H](C(=O)N[C@@H](CCCCNC(=O)C(F)(F)F)C(=O)NCCCC[C@H](NC(=O)N[C@@H](CCC(=O)O)C(=O)O)C(=O)O)CC1` [US20250213705, Compound 54], in assay [1], inhibition was half-maximal at 89 nM (IC50) and the affinity corresponds to a Ki of 0.636 nM.
Regarding `CC(=O)NCCOCCOCCOCCC(=O)N(CCCOc1cc(C#N)cc(C#N)c1)CC(=O)N[C@@H](Cc1ccc2ccccc2c1)C(=O)NCCCC[C@H](NC(=O)N[C@@H](CCC(=O)O)C(=O)O)C(=O)O` [US20250213705, Compound 78], in assay [1], the IC50 came to 6.95 nM and the Ki worked out at 0.05 nM. Further, binding in assay [2] was put at a Kd of 0.43 nM.
In assay [1], `CC(=O)NCCOCCOCCOCCC(=O)N1C[C@H](NC(=O)CCCOc2cc(C#N)cc(C#N)c2)C[C@H]1C(=O)N[C@@H](Cc1ccc2ccccc2c1)C(=O)NCCCC[C@H](NC(=O)N[C@@H](CCC(=O)O)C(=O)O)C(=O)O` [US20250213705, Compound 80] gave an IC50 of 2.35 nM and a Ki of 0.017 nM. The molecule also yielded a dissociation constant Kd in assay [2] of 2.46 nM.
For the molecule `CC(=O)NCCOCCOCCOCCC(=O)N[C@@H]1C[C@@H](C(=O)N[C@@H](Cc2ccc3ccccc3c2)C(=O)NCCCC[C@H](NC(=O)N[C@@H](CCC(=O)O)C(=O)O)C(=O)O)N(C(=O)COc2cc(C#N)cc(C#N)c2)C1` [US20250213705, Compound 81], in assay [1], the IC50 was found to be 10.7 nM and the Ki came out at 0.076 nM. The Kd in assay [2] came out at 4.12 nM.
In assay [1], `CC(=O)NCCCC[C@H](NC(=O)[C@H]1CC[C@H](CNC(=O)CCOCCOCCOCCNC(C)=O)CC1)C(=O)NCCCC[C@H](NC(=O)N[C@@H](CCC(=O)O)C(=O)O)C(=O)O` [US20250213705, Compound 83] returned an IC50 of 2.87 nM and a Ki of 0.021 nM.
In the case of `CC(=O)NCCOCCOCCOCCC(=O)N[C@@H](Cc1cccc(C(=O)O)c1)C(=O)NCC(=O)N[C@@H](Cc1ccc2ccccc2c1)C(=O)NCCCC[C@H](NC(=O)N[C@@H](CCC(=O)O)C(=O)O)C(=O)O` [US20250213705, Compound 84], in assay [1], the IC50 came out at 5.11 nM. This molecule gave a Kd in assay [2] of 1.05 nM.
In assay [1], `CC(=O)NCCOCCOCCOCCC(=O)N(CCCOc1cc(C(F)(F)F)cc(C(F)(F)F)c1)CC(=O)N[C@@H](Cc1ccc2ccccc2c1)C(=O)NCCCC[C@H](NC(=O)N[C@@H](CCC(=O)O)C(=O)O)C(=O)O` [US20250213705, Compound 86] showed an IC50 of 59.2 nM and a Ki of 0.423 nM. Besides, in assay [2], the Kd stood at 1.17 nM.
The corresponding values for `CC(=O)NCCOCCOCCOCCC(=O)N1C[C@H](NC(=O)CCCOc2cc(C#N)cc(C#N)c2)C[C@H]1C(=O)NCC(=O)N[C@@H](Cc1ccc2ccccc2c1)C(=O)NCCCC[C@H](NC(=O)N[C@@H](CCC(=O)O)C(=O)O)C(=O)O` [US20250213705, Compound 91] are 26.1 nM, 0.187 nM and 3.6 nM.
In assay [1], `CC(=O)NCCOCCOCCOCCC(=O)N[C@@H]1C[C@@H](C(=O)NCC(=O)N[C@@H](Cc2ccc3ccccc3c2)C(=O)NCCCC[C@H](NC(=O)N[C@@H](CCC(=O)O)C(=O)O)C(=O)O)N(C(=O)CCCOc2cc(C#N)cc(C#N)c2)C1` [US20250213705, Compound 92] showed an IC50 of 79.7 nM and a Ki of 0.57 nM. Besides, in assay [2], the Kd came out at 1.01 nM.
`CC(=O)NCCOCCOCCOCCC(=O)N[C@@H](Cc1ccc(C(=O)O)cc1)C(=O)NCC(=O)N[C@@H](Cc1ccc2ccccc2c1)C(=O)NCCCC[C@H](NC(=O)N[C@@H](CCC(=O)O)C(=O)O)C(=O)O` [US20250213705, Compound 94]: in assay [1], the IC50 amounted to 1.87 nM and the Ki amounted to 0.013 nM. In addition, binding in assay [2] was characterised by a dissociation constant (Kd) of 2.33 nM.
